Reference: patent publication US20260374751A1, “AMIDE PRODRUGS AND USES THEREOF” (Autobahn Therapeutics, Inc., priority 2022, published 2026)

Molecular target: T1, recombinant human FAAH (rhFAAH) (Homo sapiens, UniProt O00519)
T1 sequence (O00519 1-579): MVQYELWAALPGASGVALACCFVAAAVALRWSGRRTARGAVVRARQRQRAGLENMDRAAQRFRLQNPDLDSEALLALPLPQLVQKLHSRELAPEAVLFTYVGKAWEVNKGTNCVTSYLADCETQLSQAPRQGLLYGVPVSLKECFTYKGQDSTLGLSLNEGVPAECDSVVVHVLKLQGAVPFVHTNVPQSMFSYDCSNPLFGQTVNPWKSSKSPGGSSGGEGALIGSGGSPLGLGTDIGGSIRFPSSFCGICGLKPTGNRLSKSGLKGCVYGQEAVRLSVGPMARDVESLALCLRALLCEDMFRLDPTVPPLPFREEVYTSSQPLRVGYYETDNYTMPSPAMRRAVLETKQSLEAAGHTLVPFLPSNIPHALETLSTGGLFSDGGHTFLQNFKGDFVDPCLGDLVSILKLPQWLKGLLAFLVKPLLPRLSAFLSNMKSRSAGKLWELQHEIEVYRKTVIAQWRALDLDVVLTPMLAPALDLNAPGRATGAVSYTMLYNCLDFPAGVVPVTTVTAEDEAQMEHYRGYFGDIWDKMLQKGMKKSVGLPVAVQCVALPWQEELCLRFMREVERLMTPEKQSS
Assay: FAAH substrate evaluation: formation of acid metabolite by purified recombinant human FAAH (rhFAAH)
Format: biochemical
Settings: role: substrate; 1 μM test compound, 0.5 ng/μL rhFAAH, 1.25% ethanol or 1 μM PF-3845 (FAAH inhibitor), 0.1% BSA, Tris-EDTA pH 8.0, room temperature, 0-60 minutes
Protocol: Purified recombinant human FAAH (rhFAAH) was purchased from Cayman Chemical (Ann Arbor, MI, USA). The total volume for each incubation was 400 μL containing a final 0.5 ng/μL rhFAAH, 1 μM test compound, 1.25% ethanol or 1 μM PF-3845 (FAAH inhibitor), and 0.1% bovine serum albumin in Tris-EDTA buffer at pH 8.0). The incubation was conducted at room temperature. At 0, 5, 15, 30 and 60 minutes, an aliquot of 30 μL reaction mixtures was removed and mixed with 300 μL acetonitrile containing 5 ng/mL terfenadine and 10 ng/mL tolbutamide as internal standards to quench the reaction. The resulting mixture was centrifuged at 4000 rpm, 4 °C for 15 minutes, and 100 μL supernatant was ready for LC-MS/MS analysis to measure the formation of acid metabolite.
Acquity Ultra Performance LC system from Waters was used for sample analysis. The chromatography was performed on a reverse phase Kinetex 2.6 μm C18 column, 2.1×30 mm, 100 Å. The mobile phase A comprised of 0.1% formic acid in water and mobile phase B comprised of 0.1% formic acid in acetonitrile with a 1.5 min run time at the flow rate of 0.9 mL/min for the acid metabolite of test compounds. The mass spectrometer (API-5500 and API Q Trap 4000 Applied Biosystems/MDS SCIEX Instruments, Framingham, MA, USA) was operated under ESI positive or negative ion MRM mode.
The formation of acid metabolite was monitored and quantified using one calibration point of 1 μM. The observed rate constant (ke) for the acid metabolite formation was calculated by plotting the metabolite concentration versus time of incubation with the slope being ke and is shown in Table 1.

| Compound | ke (observed rate constant for the acid metabolite formation) |
| --- | --- |
| CCCc1ccc(COc2ccc3c(c2)CCC(CN2CC(C(=O)N[C@@H](C)CC)C2)=C3C)c(OC)c1 [Compound 10, (S)—N-(sec-butyl)-1-((6-((2-methoxy-4-propylbenzyl)oxy)-1-methyl-3,4-dihydronaphthalen-2-yl)methyl)azetidine-3-carboxamide] | B (ke is less than 1.0 and more than 0) |
| CCCc1ccc(COc2ccc3c(c2)CCC(CN2CC(C(=O)Nc4ccncc4)C2)=C3C)c(OC)c1 [Compound 13, 1-((6-((2-methoxy-4-propylbenzyl)oxy)-1-methyl-3,4-dihydronaphthalen-2-yl)methyl)-N-(pyridin-4-yl)azetidine-3-carboxamide] | A (ke is more than or equal to 1.0) |
| CCCc1ccc(COc2ccc3c(c2)CCC(CN2CC(C(=O)Nc4cccnc4)C2)=C3C)c(OC)c1 [Compound 3, 1-((6-((2-methoxy-4-propylbenzyl)oxy)-1-methyl-3,4-dihydronaphthalen-2-yl)methyl)-N-(pyridin-3-yl)azetidine-3-carboxamide] | B (ke is less than 1.0 and more than 0) |
| CCCc1ccc(COc2ccc3c(c2)CCC(CN2CC(C(=O)NC4CC4)C2)=C3C)c(OC)c1 [Compound 8, N-cyclopropyl-1-((6-((2-methoxy-4-propylbenzyl)oxy)-1-methyl-3,4-dihydronaphthalen-2-yl)methyl)azetidine-3-carboxamide] | A (ke is more than or equal to 1.0) |
| CCCc1ccc(COc2ccc3c(c2)CCC(CN2CC(C(=O)NC)C2)=C3C)c(OC)c1 [Compound 2, 1-((6-((2-methoxy-4-propylbenzyl)oxy)-1-methyl-3,4-dihydronaphthalen-2-yl)methyl)-N-methylazetidine-3-carboxamide] | B (ke is less than 1.0 and more than 0) |
| CCCc1ccc(COc2ccc3c(c2)CCC(CN2CC(C(=O)Nc4cccnn4)C2)=C3C)c(OC)c1 [Compound 4, 1-((6-((2-methoxy-4-propylbenzyl)oxy)-1-methyl-3,4-dihydronaphthalen-2-yl)methyl)-N-(pyridazin-3-yl)azetidine-3-carboxamide] | A (ke is more than or equal to 1.0) |
| CCCCN(C)C(=O)C1CN(CC2=C(C)c3ccc(OCc4ccc(CCC)cc4OC)cc3CC2)C1 [Compound 14, N-butyl-1-((6-((2-methoxy-4-propylbenzyl)oxy)-1-methyl-3,4-dihydronaphthalen-2-yl)methyl)-N-methylazetidine-3-carboxamide] | C (ke is 0) |
| CCCc1ccc(COc2ccc3c(c2)CCC(CN2CC(C(=O)NCC4CC4)C2)=C3C)c(OC)c1 [Compound 7, N-(cyclopropylmethyl)-1-((6-((2-methoxy-4-propylbenzyl)oxy)-1-methyl-3,4-dihydronaphthalen-2-yl)methyl)azetidine-3-carboxamide] | A (ke is more than or equal to 1.0) |
| CCCc1ccc(COc2ccc3c(c2)CCC(CN2CC(C(=O)NCCCF)C2)=C3C)c(OC)c1 [Compound 5, N-(3-fluoropropyl)-1-((6-((2-methoxy-4-propylbenzyl)oxy)-1-methyl-3,4-dihydronaphthalen-2-yl)methyl)azetidine-3-carboxamide] | A (ke is more than or equal to 1.0) |
| CCCc1ccc(COc2ccc3c(c2)CCC(CN2CC(C(=O)NOC)C2)=C3C)c(OC)c1 [Compound 20, N-methoxy-1-((6-((2-methoxy-4-propylbenzyl)oxy)-1-methyl-3,4-dihydronaphthalen-2-yl)methyl)azetidine-3-carboxamide] | A (ke is more than or equal to 1.0) |
| CCCCNC(=O)C1CN(CC2=C(C)c3ccc(OCc4ccc(CCC)cc4OC)cc3CC2)C1 [Compound 15, N-butyl-1-((6-((2-methoxy-4-propylbenzyl)oxy)-1-methyl-3,4-dihydronaphthalen-2-yl)methyl)azetidine-3-carboxamide] | A (ke is more than or equal to 1.0) |
| CCCc1ccc(COc2ccc3c(c2)CCC(CN2CC(C(=O)N(C)C)C2)=C3C)c(OC)c1 [Compound 23, 1-((6-((2-methoxy-4-propylbenzyl)oxy)-1-methyl-3,4-dihydronaphthalen-2-yl)methyl)-N,N-dimethylazetidine-3-carboxamide] | B (ke is less than 1.0 and more than 0) |
| CCCc1ccc(COc2ccc3c(c2)CCC(CN2CC(C(=O)N(CC)CC)C2)=C3C)c(OC)c1 [Compound 16, N,N-diethyl-1-((6-((2-methoxy-4-propylbenzyl)oxy)-1-methyl-3,4-dihydronaphthalen-2-yl)methyl)azetidine-3-carboxamide] | C (ke is 0) |
| CCCc1ccc(COc2ccc3c(c2)CCC(CN2CC(C(=O)N(C)OC)C2)=C3C)c(OC)c1 [Compound 21, N-methoxy-1-((6-((2-methoxy-4-propylbenzyl)oxy)-1-methyl-3,4-dihydronaphthalen-2-yl)methyl)-N-methylazetidine-3-carboxamide] | A (ke is more than or equal to 1.0) |
| CCCc1ccc(COc2ccc3c(c2)CCC(CN2CC(C(=O)NCCC(F)(F)F)C2)=C3C)c(OC)c1 [Compound 11, 1-((6-((2-methoxy-4-propylbenzyl)oxy)-1-methyl-3,4-dihydronaphthalen-2-yl)methyl)-N-(3,3,3-trifluoropropyl)azetidine-3-carboxamide] | A (ke is more than or equal to 1.0) |
| CCCNC(=O)C1CN(CC2=C(C)c3ccc(OCc4ccc(CCC)cc4OC)cc3CC2)C1 [Compound 18, 1-((6-((2-methoxy-4-propylbenzyl)oxy)-1-methyl-3,4-dihydronaphthalen-2-yl)methyl)-N-propylazetidine-3-carboxamide] | A (ke is more than or equal to 1.0) |
| CCCc1ccc(COc2ccc3c(c2)CCC(CN2CC(C(=O)N[C@H](C)CC)C2)=C3C)c(OC)c1 [Compound 9, (R)—N-(sec-butyl)-1-((6-((2-methoxy-4-propylbenzyl)oxy)-1-methyl-3,4-dihydronaphthalen-2-yl)methyl)azetidine-3-carboxamide] | A (ke is more than or equal to 1.0) |
| CCCc1ccc(COc2ccc3c(c2)CCC(CN2CC(C(=O)NCC)C2)=C3C)c(OC)c1 [Compound 19, N-ethyl-1-((6-((2-methoxy-4-propylbenzyl)oxy)-1-methyl-3,4-dihydronaphthalen-2-yl)methyl)azetidine-3-carboxamide] | A (ke is more than or equal to 1.0) |
| CCCc1ccc(COc2ccc3c(c2)CCC(CN2CC(C(=O)N(C)CC)C2)=C3C)c(OC)c1 [Compound 17, N-ethyl-1-((6-((2-methoxy-4-propylbenzyl)oxy)-1-methyl-3,4-dihydronaphthalen-2-yl)methyl)-N-methylazetidine-3-carboxamide] | C (ke is 0) |
| CCCc1ccc(COc2ccc3c(c2)CCC(CN2CC(C(=O)N4CCC4)C2)=C3C)c(OC)c1 [Compound 12, azetidin-1-yl(1-((6-((2-methoxy-4-propylbenzyl)oxy)-1-methyl-3,4-dihydronaphthalen-2-yl)methyl)azetidin-3-yl)methanone] | A (ke is more than or equal to 1.0) |
| CCCc1ccc(COc2ccc3c(c2)CCC(CN2CC(C(=O)NCC(F)(F)F)C2)=C3C)c(OC)c1 [Compound 6, 1-((6-((2-methoxy-4-propylbenzyl)oxy)-1-methyl-3,4-dihydronaphthalen-2-yl)methyl)-N-(2,2,2-trifluoroethyl)azetidine-3-carboxamide] | A (ke is more than or equal to 1.0) |
